Measurements from patent US12037350B2, “Compositions and methods for the prevention and/or treatment of mitochondrial disease, including Friedreich's ataxia” (Stealth BioTherapeutics Inc., priority 2020, dated 2024).

Tested on: frataxin deficient fibroblasts (GM03665) from Friedreich's ataxia patient
Assay: Frataxin Deficient Fibroblast Viability Assay (BSO Assay)
Format: cell-based
Conditions: for protection against BSO induced cell death (in words): BSO Assay, text statement; for EC50: Homo sapiens, Fibroblast, FA patient fibroblasts pretreated with compound, BSO 10 mM, MTT after 48 hrs
Description: Example 12: Frataxin Deficient Fibroblast Viability Assay (the “BSO Assay”)
This Example was used to evaluate the various new compositions for their potential efficacy in the treatment of Friedreich's Ataxia (FA or FRDA)—substantially as described in the above cited Reference (Matthias et al.).
The stock solutions of the test articles (and control compounds) were prepared in dimethyl sulfoxide (DMSO at 10 mM), Working stock solutions (2 times concentrated) were prepared on the day of the experiment in respective cell culture medium to be used for assay (detailed medium description below). A listing of compounds used as test articles in this Example 12 are found in Table 1, below.
A patient derived frataxin deficient fibroblast cell line was obtained from Coriell Institute. More specifically, the following cell lines/DNA samples were obtained from the NIGMS Human Genetic Cell Repository at the Coriell Institute for Medical Research: GM03665. To evaluate importance of various growth conditions on cell susceptibility to BSO toxicity cells were grown on:
MEM (Sigma-Aldrich) 15% Fetal Bovine Serum (FBS) without growth factors;
MEM (Sigma-Aldrich) 15% FBS with growth factors (Catalogue number 100-18B, Recombinant Human FGF-basic (154 a.a.) and catalogue number AF-100-15, Animal-Free Recombinant Human EGF from Peprotech);
MEM199/MEM EBS (Bioconcept Ltd.) 10% FBS, insulin 10 μg/ml, L-glutamine 2 mM with growth factors (Catalogue number 100-18B, Recombinant Human FGF-basic (154 a.a.) and catalogue number AF-100-15, Animal-Free Recombinant Human EGF from Peprotech).
To conduct an experiment, fibroblast cells (from all growth conditions) were seeded (100 μL (cells 3×10^3/well) on 96-well plates in MEM199/MEM EBS medium 10% FBS, insulin 10 μg/mL, L-glutamine 2 mM with growth factors and allowed to grow on plate for 24 hrs. After 24 hrs., media was removed and then test compounds of interest were added (100 μL, 2 times concentrated stock) to 96-well plates (end DM80 concentration not exceeding 0.5%) and incubated for 24 hours. Then L-buthionine-sulfoximine (BSO, from Acros Organics, Cat. No. 235520010) was added (100 μL, 2 times concentrated stock) at end concentrations ranging from 1 to 10 mM. Both test compounds and BSO were dissolved in MEM199/MEM EBS medium 10% FBS, insulin 10 μg/mL, L-glutamine 2 mM with growth factors. Cell viability was monitored and either after 24- or 48-hours cell viability was assayed by MTT (Thiazolyl blue tetrazolium bromide) assay. For the MTT assay, media was removed and 100 μL of MTT 1 mg/mL was added, incubated for 2 hours at +37° C., then medium was removed and 100 μL of isopropanol added to dissolve sediment. Absorption was measured at 570 (OD570) and 650 (QD650) nm wavelengths. Control cells (vehicle instead of BSO and compound) and vehicle control (with BSO, but vehicle instead of test compound) were treated in the same manner as ceils with BSO and compound. All cell media contained penicillin and streptomycin 100 U/mL each.
Absorption readouts were processed as follows: ValueΔ=ValueOD570−ValueOD650 and the obtained values were used to calculate cell viability as % of control cell (i.e., no BSO, no compound, just vehicle) viability.
Except as otherwise indicated in Table 1, all samples were run in at least 3 replicates for test compounds and at least 8 replicates for controls (i.e., both control (no BSO, no compound) and vehicle control (i.e., with BSO, no compound). Exact N per data points are indicated in the figures/table legends. Results for the compounds (test articles and controls) tested are listed in Table 1, below.
This is a cell-based assay measuring cytotoxicity which results from oxidative stress subsequent to depletion of endogenous glutathione defense mechanisms. The cells were primary Friedreich Ataxia (FA) patient fibroblasts which were incubated for 48 hrs. in BSO, an inhibitor of gamma glutamyl synthetase, an enzyme required for glutathione production. […]

Row | Compound | protection against BSO induced cell death (in words) | EC50 [nM] | protection against BSO induced cell death (in words) (listed as omaveloxolone)
1 | COC1=C(OC)C(=O)C(CCCCF)=C(C)C1=O [Compound J, 2-(4-fluorobutyl)-5,6-dimethoxy-3-methylcyclohexa-2,5-diene-1,4-dione] | not that effective | > 1000 | 
2 | CC1(C)CC[C@]2(NC(=O)C(C)(F)F)CC[C@]3(C)[C@H](C(=O)C=C4[C@@]5(C)C=C(C#N)C(=O)C(C)(C)[C@@H]5CC[C@]43C)[C@@H]2C1 [Omaveloxolone, reference compound] | roughly equivalent in protection as compared with Vatiquinone | 149 | displayed anti-ferroptotic activity
3 | COC1=C(OC)C(=O)C(CCCCCCCCCC(F)(F)F)=C(C)C1=O [Compound C, 2,3-dimethoxy-5-methyl-6-(10,10,10-trifluorodecyl)cyclohexa-2,5-diene-1,4-dione] | best of the test compounds | 128 | 
